From patent publication US7138361B2, “Herbicidal heterocycles” (E. I. du Pont de Nemours and Company, priority 2000, dated 2006)

Tests used:
Type in all cases: in vivo
[1] = test system: lambsquarters (Chenopodium album); assay: Test C preemergence; conditions: for Plant response rating (0 to 100), Lambsquarters: Rate 500 g/ha, visual evaluation after 12 to 14 days
Outline: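 Pre- and postemergence treatments used a non-phytotoxic solvent/surfactant formulation; post-treated plants measured 2 to 18 cm. Greenhouse hold 12–14 d; % control estimated visually relative to controls.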

corn (Zea mays) [2] = assay: Test B preemergence
Outline: (§1)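 Pre: seeded pots sprayed, chemical in non-phytotoxic solvent/surfactant mix. Post: plants 2–18 cm, 1–4 leaf, same formulation. Greenhouse 13–15 d; visual % control vs untreated, 0–100 scale.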

[3] = test system: morning glory (Ipomoea hederacea); assay: Test B preemergence
Outline: as §1

[4] = test system: velvetleaf (Abutilon theophrasti); assay: Test B preemergence
Outline: as §1

[5] = test system: crabgrass (Digitaria sanguinalis); assay: Test B preemergence
Outline: as §1

[6] = test system: lambsquarters (Chenopodium album); assay: Test B preemergence
Outline: as §1

[7] = test system: giant foxtail (Setaria faberii); assay: Test B preemergence
Outline: as §1

[8] = test system: Surinam grass (Brachiaria decumbens); assay: Test B preemergence
Outline: as §1

[9] = test system: barnyardgrass (Echinochloa crus-galli); assay: Test B preemergence
Outline: as §1

[10] = test system: pigweed (Amaranthus retroflexus); assay: Test B preemergence
Outline: as §1

[11] = test system: cocklebur (Xanthium strumarium); assay: Test B preemergence
Outline: as §1

rice (Oryza saliva) = assay: Test B preemergence
Outline: as §1

corn (Zea mays) [12] = assay: Test B postemergence
Outline: as §1

[13] = test system: morning glory (Ipomoea hederacea); assay: Test B postemergence
Outline: as §1

[14] = test system: velvetleaf (Abutilon theophrasti); assay: Test B postemergence
Outline: as §1

[15] = test system: crabgrass (Digitaria sanguinalis); assay: Test B postemergence
Outline: as §1

[16] = test system: lambsquarters (Chenopodium album); assay: Test B postemergence
Outline: as §1

[17] = test system: wheat (Triticum aestivum); assay: Test B postemergence
Outline: as §1

[18] = test system: giant foxtail (Setaria faberii); assay: Test B postemergence
Outline: as §1

wild oat (Avena fatua) = assay: Test B postemergence
Outline: as §1

[19] = test system: Surinam grass (Brachiaria decumbens); assay: Test B postemergence
Outline: as §1

[20] = test system: barnyardgrass (Echinochloa crus-galli); assay: Test B postemergence
Outline: as §1

[21] = test system: pigweed (Amaranthus retroflexus); assay: Test B postemergence
Outline: as §1

[22] = test system: cocklebur (Xanthium strumarium); assay: Test B postemergence
Outline: as §1

[23] = test system: blackgrass (Alopecurus myosuroides); assay: Test B postemergence
Outline: as §1

[24] = Rate 125 g/ha, scale 0 to 100, 0 no effect, 100 complete control
[25] = preemergence, Rate 62 g/ha, scale 0 to 100
[26] = preemergence, Rate 250 g/ha, scale 0 to 100, 0 no effect, 100 complete control
[27] = Preemergence, Rate 500 g/ha, scale 0 to 100, 0 no effect, 100 complete control
[28] = preemergence, Rate 125 g/ha, scale of 0 to 100 where 0 is no effect and 100 is complete control, 13 to 15 days
[29] = Rate 500 g/ha, scale 0 (no effect) to 100 (complete control), 13 to 15 days
[30] = Rate 500 g/ha, scale 0 to 100, 0 is no effect, 100 is complete control, 13 to 15 days

Cc1cc(C)nc(N2CCC(n3ccc(C(C)(C)C)n3)C2=O)c1 (stereo not shown) [Compound 138]
100: Plant response rating, Lambsquarters [1, 24] | Plant response rating, Lambsquarters ([1]; preemergence, Rate 31 g/ha, scale 0 to 100) | Plant response rating, Lambsquarters [1, 25] | Plant response rating, Lambsquarters [1, 26] | Plant response rating, Morningglory [3, 27] | Plant response rating, Crabgrass [5, 27] | Plant response rating, Crabgrass [5, 28] | Plant response rating, Lambsquarters [6, 27] | Plant response rating, Lambsquarters [6, 28] | Plant response rating, Foxtail, Giant [7, 27] | Plant response rating, Surinam grass [8, 27] | Plant response rating, Barnyardgrass [9, 27] | Plant response rating, Pigweed [10, 27] | Plant response rating, Pigweed [10, 28] | Plant response rating, Cocklebur [11, 27] | Plant response rating, Rice (rice (Oryza saliva); [27])
0: Plant response rating, Corn (corn (Zea mays) [2]; [28]) | Plant response rating, Velvetleaf [4, 27] | Plant response rating, Velvetleaf [4, 28] | Plant response rating, Barnyardgrass [9, 28] | Plant response rating, Cocklebur [11, 28] | Plant response rating, Rice (rice (Oryza saliva); [28]) | Plant response rating, Corn (corn (Zea mays) [12]; [24]) | Plant response rating, Corn (corn (Zea mays) [12]; [29]) | Plant response rating, Velvetleaf [14, 24] | Plant response rating, Velvetleaf [14, 29] | Plant response rating, Crabgrass [15, 24] | Plant response rating, Crabgrass [15, 29] | Plant response rating, Lambsquarters [16, 24] | Plant response rating, Lambsquarters [16, 29] | Plant response rating, Wheat [17, 24] | Plant response rating, Wheat [17, 29] | Plant response rating, Foxtail, Giant [18, 24] | Plant response rating, Foxtail, Giant [18, 29] | Plant response rating, Wild Oat (wild oat (Avena fatua); [24]) | Plant response rating, Wild Oat (wild oat (Avena fatua); [29]) | Plant response rating, Surinam grass [19, 24] | Plant response rating, Surinam grass [19, 29] | Plant response rating, Barnyardgrass [20, 24] | Plant response rating, Barnyardgrass [20, 29] | Plant response rating, Pigweed [21, 24] | Plant response rating, Cocklebur [22, 24] | Plant response rating, Cocklebur [22, 29] | Plant response rating, Blackgrass [23, 24] | Plant response rating, Blackgrass [23, 29]
30: Plant response rating, Morningglory [13, 29] | Plant response rating, Pigweed [21, 29]
90: Plant response rating, Morningglory [3, 28]
10: Plant response rating, Morningglory [13, 24]
20: Plant response rating, Corn (corn (Zea mays) [2]; [27])
80: Plant response rating, Foxtail, Giant [7, 28]
70: Plant response rating, Surinam grass [8, 28]

CCC(C)c1ccn(C2CCN(c3ccc(Cl)c(OC)c3)C2=O)n1 (stereo not shown) [Compound 119]
0: Plant response rating, Corn (corn (Zea mays) [2]; [28]) | Plant response rating, Corn (corn (Zea mays) [12]; [24]) | Plant response rating, Corn (corn (Zea mays) [12]; [30]) | Plant response rating, Foxtail, Giant [18, 24] | Plant response rating, Wild Oat (wild oat (Avena fatua); [24]) | Plant response rating, Blackgrass [23, 24] | Plant response rating, Blackgrass [23, 30]
90: Plant response rating, Lambsquarters [16, 24] | Plant response rating, Cocklebur [22, 24]
60: Plant response rating, Pigweed [21, 24]
100: Plant response rating, Lambsquarters [1, 24] | Plant response rating, Lambsquarters [1, 25] | Plant response rating (0 to 100), Lambsquarters ([1]; preemergence) | Plant response rating, Lambsquarters [1, 26] | Plant response rating, Crabgrass [5, 27] | Plant response rating, Crabgrass [5, 28] | Plant response rating, Lambsquarters [6, 27] | Plant response rating, Lambsquarters [6, 28] | Plant response rating, Foxtail, Giant [7, 27] | Plant response rating, Foxtail, Giant [7, 28] | Plant response rating, Surinam grass [8, 27] | Plant response rating, Surinam grass [8, 28] | Plant response rating, Barnyardgrass [9, 27] | Plant response rating, Barnyardgrass [9, 28] | Plant response rating, Pigweed [10, 27] | Plant response rating, Pigweed [10, 28] | Plant response rating, Barnyardgrass [20, 30] | Plant response rating, Cocklebur [22, 30]
30: Plant response rating, Velvetleaf [4, 28] | Plant response rating, Cocklebur [11, 27] | Plant response rating, Cocklebur [11, 28] | Plant response rating, Morningglory [13, 24] | Plant response rating, Velvetleaf [14, 24] | Plant response rating, Barnyardgrass [20, 24]
40: Plant response rating, Corn (corn (Zea mays) [2]; [27]) | Plant response rating, Crabgrass [15, 24]
70: Plant response rating, Morningglory [3, 27] | Plant response rating, Velvetleaf [4, 27]
10: Plant response rating, Rice (rice (Oryza saliva); [28])
50: Plant response rating, Morningglory [3, 28] | Plant response rating, Surinam grass [19, 30]
20: Plant response rating, Rice (rice (Oryza saliva); [27]) | Plant response rating, Wheat [17, 24] | Plant response rating, Surinam grass [19, 24]

CCC(C)c1ccn(C2CCN(c3ccc(F)c(C(F)(F)F)c3)C2=O)n1 (stereo not shown) [Compound 145]
80: Plant response rating, Rice (rice (Oryza saliva); [27]) | Plant response rating, Lambsquarters [16, 24] | Plant response rating, Pigweed [21, 29]
0: Plant response rating, Corn (corn (Zea mays) [2]; [27]) | Plant response rating, Corn (corn (Zea mays) [2]; [28]) | Plant response rating, Morningglory [3, 27] | Plant response rating, Morningglory [3, 28] | Plant response rating, Velvetleaf [4, 27] | Plant response rating, Velvetleaf [4, 28] | Plant response rating, Surinam grass [8, 28] | Plant response rating, Cocklebur [11, 27] | Plant response rating, Cocklebur [11, 28] | Plant response rating, Rice (rice (Oryza saliva); [28]) | Plant response rating, Corn (corn (Zea mays) [12]; [24]) | Plant response rating, Corn (corn (Zea mays) [12]; [29]) | Plant response rating, Morningglory [13, 24] | Plant response rating, Morningglory [13, 29] | Plant response rating, Velvetleaf [14, 24] | Plant response rating, Crabgrass [15, 24] | Plant response rating, Crabgrass [15, 29] | Plant response rating, Wheat [17, 24] | Plant response rating, Wheat [17, 29] | Plant response rating, Foxtail, Giant [18, 24] | Plant response rating, Wild Oat (wild oat (Avena fatua); [24]) | Plant response rating, Wild Oat (wild oat (Avena fatua); [29]) | Plant response rating, Surinam grass [19, 24] | Plant response rating, Surinam grass [19, 29] | Plant response rating, Barnyardgrass [20, 24] | Plant response rating, Pigweed [21, 24] | Plant response rating, Cocklebur [22, 24] | Plant response rating, Cocklebur [22, 29] | Plant response rating, Blackgrass [23, 24] | Plant response rating, Blackgrass [23, 29]
60: Plant response rating, Surinam grass [8, 27]
30: Plant response rating, Velvetleaf [14, 29]
70: Plant response rating, Barnyardgrass [9, 28]
90: Plant response rating, Barnyardgrass [20, 29]
100: Plant response rating, Lambsquarters [1, 24] | Plant response rating, Lambsquarters [1, 25] | Plant response rating (0 to 100), Lambsquarters ([1]; preemergence) | Plant response rating, Lambsquarters [1, 26] | Plant response rating, Crabgrass [5, 27] | Plant response rating, Crabgrass [5, 28] | Plant response rating, Lambsquarters [6, 27] | Plant response rating, Lambsquarters [6, 28] | Plant response rating, Foxtail, Giant [7, 27] | Plant response rating, Foxtail, Giant [7, 28] | Plant response rating, Barnyardgrass [9, 27] | Plant response rating, Pigweed [10, 27] | Plant response rating, Pigweed [10, 28] | Plant response rating, Lambsquarters [16, 29]
40: Plant response rating, Foxtail, Giant [18, 29]
